Assay results from patent US20230067910A1, “NOVEL COMPOUNDS FOR THE DIAGNOSIS, TREATMENT AND PREVENTION OF DISEASES ASSOCIATED WITH THE AGGREGATION OF ALPHA-SYNUCLEIN” (MODAG GMBH, priority 2019, published 2023).
Where two headings read alike, the source gives them in different places.

Legend:
[1] = biological target: T1, alpha-synuclein (fibrils) (Homo sapiens, UniProt P37840); experiment: Competition binding assay, protocol 3a, reference ligand [3H]-compound 1, alpha-synuclein fibrils; conditions: reference ligand [3H]-compound 1 (1 nM)
T1 construct: made in house; host or cells: E. coli
Protocol: (§1) Alpha-synuclein and tau46 were purified from E. coli according to established protocols (Nuscher B, et al., J. Biol. Chem., 2004; 279(21):21966-75), Aβ1-42 was obtained from rPeptide, Watkinsville, Ga., USA. Fibrils were prepared by aggregation of recombinant protein via constant agitation. In detail, 70 μM of alpha-synuclein mixed with 100 mM NaCl in 50 mM Tris, pH 7.0+0.02% NaN3 were incubated at 1,400 rpm, 37° C. for 96 h. 10 μM of tau46 were incubated with 0.03 mg/ml heparin in 50 mM Tris, pH=7.0 at 1,000 rpm, 37° C. for 72 h. Aβ1-42 was solved in 20 mM NaPi, pH=8.0+0.2 mM EDTA+0.02% NaN3 (Deeg A A, et al., Biochim. Biophys. Acta, 2015; 1850(9): 1884-90; Goedert M, et al. Nature, 1996; 383(6600): 550-3).
(§2) A fixed concentration of sonicated human recombinant αSYN (200 nM/well) or tau46 (208 nM/well) fibrils diluted in phosphate buffered saline (PBS) were incubated in low binding plates (96 well micro test plate, Ratiolab GmbH, Dreieich, Germany) together with 1 nM [^3H]-compound 1 and 1:4 serial dilutions of the cold compound of interest starting from 1 μM diluted in 50 mM Tris-base, 10% EtOH, 0.05% Tween20, pH 7.4. For the calculation of Ki values the KD value of compound 1 toward sonicated human recombinant αSYN fibrils was set to 3 nM.
(§3) Assay plates were incubated under agitation at 37° C. for 2 h covered by plastic foil (Resealable tape, PerkinElmer, Waltham, Mass., USA). Prior to harvesting, a filter (Printed filtermat B, PerkinElmer, Waltham, Mass., USA) was incubated with 5 mg/mL polyethylenimine (PEI, Poly(ethyleneimine) solution, Sigma Aldrich Chemie GmbH, Taufkirchen, Germany) at 4° C. for 30 min. After incubation, bound and free ligands were separated by vacuum filtration using a harvester (Filtermate harvester, PerkinElmer, Waltham, Mass., USA). The filter was washed three times with buffer cooled to 4° C. and subsequently dried in the microwave for 2 min at medium power. The filter was sealed in a plastic bag (Sample bag for MicroBeta®, PerkinElmer, Waltham, Mass., USA) together with added scintillator (BETAPLATE SCINT, PerkinElmer, Waltham, Mass., USA). Accumulation of tritium was counted in a liquid scintillation counter (Wallac MicroBeta® TriLux, 1450 LSC & Luminescence Counter, PerkinElmer, Waltham, Mass., USA) immediately. Radioactivity was plotted against the increasing tritium-labeled compound or cold compound concentrations. Data points were fitted using nonlinear regression analysis in GraphPad Prism (GraphPad Software, Inc., Version 7.03, La Jolla, Calif., USA).
(§4) The fibril competition assay provides Ki values. Ki is a quantitative measure that represents the concentration of the non-radioactive tested compound (competitor ligand) required to replace 50% of a reference compound, in this case [H]-compound 1 (1 nM) or [H]-compound 2 (1 nM), which is bound to the target structures (1 nM), in our case recombinant alpha-synuclein and tau46 fibrils. This assay is suitable for a screening of non-radioactive ligands.

[2] = biological target: T2, tau46 (fibrils) (Homo sapiens, UniProt P10636); experiment: Competition binding assay, protocol 3a, reference ligand [3H]-compound 1, tau46 fibrils; conditions: Experiment B, reference ligand [3H]-compound 1 (1 nM)
T2 construct: made in house; host or cells: E. coli
Protocol: as §1, §2, §3, §4

[3] = tested on: H4 cells overexpressing full-length alpha-synuclein; experiment: Cellular model of aggregated alpha-synuclein-dependent toxicity, full-length alpha-synuclein H4 cells; type: cell-based; conditions: 10 μM compound, 100 μM FeCl3, 0.75% DMSO, 48 h; for inhibition at 10 µM: read-out: Change in fraction of condensed nuclei (rel. to DMSO control) [%]
Protocol: (§5) To identify potential therapeutically useful effects, compounds were tested in two cellular models of aggregated alpha-synuclein-dependent toxicity in H4 cells. These cellular models allow for the inducible overexpression of alpha-synuclein hemi-Venus fusion constructs (V1S+SV2) or full-length alpha-synuclein (the model is described in detail in: Bartels M, Weckbecker D, Kuhn P H, Ryazanov S, Leonov A, Griesinger C, Lichtenthaler S F, Bötzel K, Giese A: Iron-mediated aggregation and toxicity in a novel neuronal cell culture model with inducible alpha-synuclein expression, Sci. Rep. 2019 Jun. 24; 9(1):9100). Moreover, addition of DMSO and FeCl3 promotes the aggregation of alpha-synuclein which is associated with an increase in cytotoxicity. The cell culture assay uses these effects by determining the change in the number of cells and the change in the percentage of condensed nuclei, which is indicative of apoptosis, in order to obtain information on which compounds show the most promising effects and thus might be therapeutically useful.
(§6) In these experiments, cells were incubated with 100 μM FeCl3 and 0.75% DMSO in the presence of 10 μM anle138c as a positive control, compounds 1 to 19 (10 μM), or DMSO as a negative control. After 48 h, the cells were imaged with an OPERA high-throughput imaging system and analyzed using Acapella software (Perkin Elmer). […] A reduction in the fraction of condensed nuclei (in the absence of a strong reduction in cell number) is indicative of a beneficial therapeutic effect.

[4] = tested on: H4 cells overexpressing alpha-synuclein hemi-Venus fusion constructs (V1S+SV2); experiment: Cellular model of aggregated alpha-synuclein-dependent toxicity, V1S+SV2 H4 cells; type: cell-based; conditions: 10 μM compound, 100 μM FeCl3, 0.75% DMSO, 48 h; for inhibition at 10 µM: read-out: Change in fraction of condensed nuclei (rel. to DMSO control) [%]
Protocol: as §5, §6

[5] = biological target: T3, alpha-synuclein (sonicated fibrils) (Homo sapiens, UniProt P37840); experiment: Modified competition binding assay, protocol 3b, reference ligand [3H]-compound 2; conditions: Table 5, reference ligand [3H]-compound 2 (1 nM)
T3 construct: made in house; host or cells: E. coli
Protocol: as §1
For competition binding experiments, a fixed concentration of recombinant αSYN fibrils (sonicated, 15 nM/well) was incubated with 1 nM [^3H]-compound 1 or [3H]-compound 2 and decreasing concentrations of a serial dilution of non-labeled competitor (serial dilution 1:4 or 1:3.5 or 1:3 providing the concentration ranges of non-labeled competitor 1 μM-[…] 1 μM-4 nM or 1 μM-[…], respectively) in 30 mM Tris-HCl, 10% ethanol, 0.05% Tween20, pH 7.4 in a total volume of 200 μL/well. Plates were incubated for 4.5 hours at RT covered by removable sealing tape (PerkinElmer, Waltham, Mass., USA).
Filtration and readout were performed as described for saturation binding assays. [^3H]-labeled ligand binding [in CMP] was plotted against increasing competitor concentrations and data points were fitted using non-linear regression analysis to calculate the IC50 and Ki values (GraphPad Software, Inc., Version 7.03, La Jolla (Calif.), USA). In the competition binding assay with sonicated recombinant αSYN fibrils, the calculation of Ki values was done based on KD values of 0.6 nM and 0.2 nM for compound 1 and compound 2, respectively.
as §4

[6] = biological target: T3, alpha-synuclein (sonicated fibrils); experiment: Modified competition binding assay, protocol 3b, reference ligand [3H]-compound 1; conditions: Table 4b, reference ligand [3H]-compound 1 (1 nM), read-out: Ki (nM) alpha-synuclein (sonicated fibrils)
Protocol: Fibrils were prepared by aggregation of recombinant protein via constant agitation. In detail, 70 μM of alpha-synuclein mixed with 100 mM NaCl in 50 mM Tris, pH 7.0+0.02% NaN3 were incubated at 1,400 rpm, 37° C. for 96 h. 10 μM of tau46 were incubated with 0.03 mg/ml heparin in 50 mM Tris, pH=7.0 at 1,000 rpm, 37° C. for 72 h.
Plates were incubated for 4.5 hours at RT covered by removable sealing tape (PerkinElmer, Waltham, Mass., USA).
Filtration and readout were performed as described for saturation binding assays.
The fibril competition assay provides Ki values. […] This assay is suitable for a screening of non-radioactive ligands.

[7] = biological target: T4, aggregated alpha-synuclein (Homo sapiens, UniProt P37840); experiment: Saturation binding assay, protocol 2a, alpha-synuclein fibrils; conditions: saturation assay protocol 2a, [3H]-labeled compound; read-out: KD [nM] for aggregated alpha-synuclein
T4 construct: made in house; host or cells: E. coli
Protocol: as §1
Sonicated αSYN (0.04 μM) or tau46 (0.4 μM) or Aβ1-42 (6 μM) fibrils diluted in PBS were incubated with decreasing concentrations of [^3H]-labeled compound (48 nM or 24 nM-[…]) in 50 mM Tris-base, 10% ethanol, 0.05% Tween20, pH 7.4. To determine non-specific binding, the respective unlabeled compound (400 nM) was added to a duplicate set of binding reactions.
as §3, with “2 h,” for “2 h”, “microwave oven” for “microwave”, “power. Melt-on scintillator sheets (MeltiLex™ B/HS, PerkinElmer, Waltham, Mass., USA) were molten into the filter using a heating plate set to 120° C. After solidifying at room temperature, the” for “power. The”, “MicroBeta®,” for “MicroBeta®, PerkinElmer, Waltham, Mass., USA) together with added scintillator (BETAPLATE SCINT,”
The fibril-binding saturation assay provides KD values. This assay is performed with directly radioactively labeled compounds (e.g. ^3H labeling). The saturation binding assays were performed using as target structures fibrillar aggregates produced from recombinant human alpha-synuclein, Aβ1-42, and tau46, respectively.

[8] = Experiment A, read-out: Ki (nM) alpha-synuclein (fibrils)
[9] = Experiment B, read-out: Ki (nM) alpha-synuclein (sonicated fibrils)

T2 sequence (P10636 1-412 isoform P10636-7): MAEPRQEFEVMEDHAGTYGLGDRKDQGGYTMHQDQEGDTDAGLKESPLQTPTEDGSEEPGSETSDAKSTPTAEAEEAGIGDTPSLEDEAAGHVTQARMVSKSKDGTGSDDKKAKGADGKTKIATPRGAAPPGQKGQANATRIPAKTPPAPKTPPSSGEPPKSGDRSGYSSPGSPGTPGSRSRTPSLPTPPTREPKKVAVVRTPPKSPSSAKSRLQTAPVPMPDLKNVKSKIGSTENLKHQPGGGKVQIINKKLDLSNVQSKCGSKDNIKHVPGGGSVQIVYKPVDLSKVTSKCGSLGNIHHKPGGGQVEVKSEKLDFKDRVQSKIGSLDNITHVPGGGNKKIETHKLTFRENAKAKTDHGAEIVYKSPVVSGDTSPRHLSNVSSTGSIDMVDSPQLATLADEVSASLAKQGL

Row | Structure (SMILES) | Ki [1, 8] [nM] | Ki [1, 9] [nM] | Ki [2] [nM] | Ki [5] [nM] | Ki [6] [nM] | Kd [7] [nM] | Change in cell number (rel. to DMSO control) [%] [3] [%] | inhibition at 10 µM [3] [%] | Change in cell number (rel. to DMSO control) [%] [4] [%] | inhibition at 10 µM [4] [%]
1 | CN(C)c1ccc(-c2cc(-c3ccnc(Br)c3)[nH]n2)cn1 [Compound 4, 5-[5-(2-bromopyridin-4-yl)-1H-pyrazol-3-yl]-N,N-dimethylpyridin-2-amine] | 8 | 13 | 31 | 0.7 | – | – | −48.6 | 30.1 | −36.9 | -33.7
2 | Brc1cc(-c2cc(-c3ccc4c(c3)OCO4)n[nH]2)ccn1 [Compound 9, 4-[3-(1,3-benzodioxol-5-yl)-1H-pyrazol-5-yl]-2-bromopyridine] | 2 | < 4 | 28 | 3.3 | 2.1 | – | −35.3 | 23.8 | −22.5 | 31.8
3 | Brc1cncc(-c2cc(-c3ccc4c(c3)OCO4)n[nH]2)c1 [Compound 10] | 34 | 25 | > 100 | 7.8 | – | – | −35.3 | 60.2 | −32.8 | 50.3
4 | Cn1nc(-c2ccc3c(c2)OCO3)cc1-c1ccnc(Br)c1 [Compound 18, 4-[3-(1,3-benzodioxol-5-yl)-1-methyl-1H-pyrazol-5-yl]-2-bromopyridine] | – | – | – | – | – | 126 | −21.3 | 18.2 | −11.8 | 19.9

Now from value to molecule, other results behind:

Row | Ki [1, 8] [nM] | Ki [1, 9] [nM] | Ki [2] [nM] | Ki [5] [nM] | Ki [6] [nM] | Kd [7] [nM] | Structure (SMILES) | Change in cell number (rel. to DMSO control) [%] [3] [%] | inhibition at 10 µM [3] [%] | Change in cell number (rel. to DMSO control) [%] [4] [%] | inhibition at 10 µM [4] [%]
5 | < 0.1 | 3 | 4 | 0.95 | – | – | CN(C)c1ccc(-c2cc(-c3ccnc(F)c3)[nH]n2)cc1 [Compound 3, 4-[5-(2-fluoropyridin-4-yl)-1H-pyrazol-3-yl]-N,N-dimethylaniline] | −34.8 | 79.1 | −11.3 | 31.9
6 | – | 2 | 1 | 0.8 | – | – | Brc1cc(-c2cc(-c3ccc(N4CCC4)cc3)n[nH]2)ccn1 [Compound 17, 4-{3-[4-(azetidin-1-yl)phenyl]-1H-pyrazol-5-yl}-2-bromopyridine] | −28.9 | 55 | −8.2 | 38.3
